# PMC5951806, “Rapid labelling and covalent inhibition of intracellular native proteins using ligand-directed N-acyl-N-alkyl sulfonamide” (Nature Communications, 2018)
# Assays:
# [1] = target: T1, Monocarboxylate transporter 4 (SLC16A3) (Homo sapiens, UniProt O15427); experiment: TMT LC-MSMS of 11-labelled proteins; assay type: cell-based
# T1 sequence (O15427 1-465): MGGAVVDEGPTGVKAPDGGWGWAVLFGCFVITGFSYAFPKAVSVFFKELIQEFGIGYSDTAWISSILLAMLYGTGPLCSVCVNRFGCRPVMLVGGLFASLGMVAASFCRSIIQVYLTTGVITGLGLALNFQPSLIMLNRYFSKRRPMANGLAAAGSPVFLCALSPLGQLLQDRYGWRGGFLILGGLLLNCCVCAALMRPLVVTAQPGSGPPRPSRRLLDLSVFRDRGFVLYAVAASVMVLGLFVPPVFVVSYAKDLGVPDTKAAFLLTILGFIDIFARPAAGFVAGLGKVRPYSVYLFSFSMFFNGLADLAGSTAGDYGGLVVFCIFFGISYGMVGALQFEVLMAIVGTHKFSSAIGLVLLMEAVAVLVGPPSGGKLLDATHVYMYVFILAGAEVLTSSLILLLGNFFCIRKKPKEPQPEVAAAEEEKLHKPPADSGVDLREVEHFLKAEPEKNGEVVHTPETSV
# From the text: (§1) Supplement 41467_2018_4343_MOESM4_ESM.xlsx, sheet "Exp3" | column: Abundance Ratio: (11) / (11 with PU-H71); Abundance Ratio: (11) / (DMSO); Abundances (Grouped): 11; Abundances (Grouped): 11 with PU-H71
# protein MAL2 (MAL2) = protein MAL2 (MAL2) (Homo sapiens, UniProt Q969L2); experiment: TMT LC-MSMS of 11-labelled proteins; assay type: cell-based
# protein MAL2 (MAL2), sequence (Q969L2 whole entry): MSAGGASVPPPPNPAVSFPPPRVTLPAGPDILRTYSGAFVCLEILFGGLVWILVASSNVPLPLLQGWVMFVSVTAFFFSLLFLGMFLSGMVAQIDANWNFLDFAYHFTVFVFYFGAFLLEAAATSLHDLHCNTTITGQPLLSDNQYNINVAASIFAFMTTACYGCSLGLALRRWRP
# From the text: as §1
# [2] = target: Dolichyl-diphosphooligosaccharide--protein glycosyltransferase subunit 1 (RPN1) (Homo sapiens, UniProt P04843); experiment: TMT LC-MSMS of 11-labelled proteins; assay type: cell-based
# Dolichyl-diphosphooligosaccharide--protein glycosyltransferase subunit 1 (RPN1), sequence (P04843 24-607): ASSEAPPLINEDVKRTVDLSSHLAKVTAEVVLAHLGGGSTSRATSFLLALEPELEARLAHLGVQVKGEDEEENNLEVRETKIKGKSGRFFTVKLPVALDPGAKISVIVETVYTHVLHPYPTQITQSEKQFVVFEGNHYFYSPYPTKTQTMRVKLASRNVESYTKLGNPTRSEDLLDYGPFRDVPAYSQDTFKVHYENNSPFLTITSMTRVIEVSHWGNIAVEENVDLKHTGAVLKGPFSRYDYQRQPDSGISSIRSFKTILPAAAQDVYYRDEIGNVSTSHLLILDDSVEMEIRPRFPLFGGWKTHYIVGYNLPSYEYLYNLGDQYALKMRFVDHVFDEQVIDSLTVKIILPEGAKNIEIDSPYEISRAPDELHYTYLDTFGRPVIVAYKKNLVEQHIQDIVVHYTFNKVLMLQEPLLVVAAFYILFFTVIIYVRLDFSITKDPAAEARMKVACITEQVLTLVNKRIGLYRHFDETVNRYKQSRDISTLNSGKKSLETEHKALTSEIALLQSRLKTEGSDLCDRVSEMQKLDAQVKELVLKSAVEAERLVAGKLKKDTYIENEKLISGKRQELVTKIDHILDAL
# Dolichyl-diphosphooligosaccharide--protein glycosyltransferase subunit 1 (RPN1), sequence (P39656 43-456 partner): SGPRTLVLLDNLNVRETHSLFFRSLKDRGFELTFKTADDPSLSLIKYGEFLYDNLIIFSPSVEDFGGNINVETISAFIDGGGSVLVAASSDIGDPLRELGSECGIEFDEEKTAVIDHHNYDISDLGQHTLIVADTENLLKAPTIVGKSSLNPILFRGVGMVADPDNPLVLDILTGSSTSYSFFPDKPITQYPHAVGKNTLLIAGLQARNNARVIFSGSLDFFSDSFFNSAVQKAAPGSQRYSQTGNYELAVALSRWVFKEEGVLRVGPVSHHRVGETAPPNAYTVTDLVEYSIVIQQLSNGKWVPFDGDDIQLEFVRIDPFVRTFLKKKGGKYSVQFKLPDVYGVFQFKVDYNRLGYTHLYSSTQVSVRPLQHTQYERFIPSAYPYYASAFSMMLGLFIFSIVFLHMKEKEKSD
# Dolichyl-diphosphooligosaccharide--protein glycosyltransferase subunit 1 (RPN1), sequence (P04844 23-631 partner): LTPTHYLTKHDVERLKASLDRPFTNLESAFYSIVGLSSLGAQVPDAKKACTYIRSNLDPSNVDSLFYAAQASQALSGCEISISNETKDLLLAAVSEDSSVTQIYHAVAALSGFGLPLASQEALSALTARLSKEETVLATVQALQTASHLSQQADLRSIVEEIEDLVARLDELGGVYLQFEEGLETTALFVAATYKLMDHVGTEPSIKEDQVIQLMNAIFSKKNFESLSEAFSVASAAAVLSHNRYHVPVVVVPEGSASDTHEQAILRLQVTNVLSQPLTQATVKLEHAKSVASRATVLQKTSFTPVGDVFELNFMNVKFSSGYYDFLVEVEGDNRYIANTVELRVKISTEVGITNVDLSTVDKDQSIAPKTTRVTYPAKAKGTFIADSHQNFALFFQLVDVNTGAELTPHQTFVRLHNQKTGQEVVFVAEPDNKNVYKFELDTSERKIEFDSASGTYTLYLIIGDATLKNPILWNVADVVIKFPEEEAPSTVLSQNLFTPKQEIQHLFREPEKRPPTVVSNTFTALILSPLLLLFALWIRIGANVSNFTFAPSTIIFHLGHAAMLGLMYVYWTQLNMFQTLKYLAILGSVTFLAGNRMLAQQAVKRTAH
# Dolichyl-diphosphooligosaccharide--protein glycosyltransferase subunit 1 (RPN1), sequence (P61803 whole entry partner): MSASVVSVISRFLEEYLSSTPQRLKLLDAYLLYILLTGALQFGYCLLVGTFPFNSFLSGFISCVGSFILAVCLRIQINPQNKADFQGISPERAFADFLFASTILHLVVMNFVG
# Dolichyl-diphosphooligosaccharide--protein glycosyltransferase subunit 1 (RPN1), sequence (P61165 whole entry partner): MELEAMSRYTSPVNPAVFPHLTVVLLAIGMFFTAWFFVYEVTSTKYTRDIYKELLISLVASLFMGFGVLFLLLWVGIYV
# Dolichyl-diphosphooligosaccharide--protein glycosyltransferase subunit 1 (RPN1), sequence (P0C6T2 whole entry partner): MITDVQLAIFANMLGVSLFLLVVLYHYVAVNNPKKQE
# From the text: as §1
# [3] = test system: immunoglobulin gamma-1 heavy chain; experiment: TMT LC-MSMS of 11-labelled proteins; assay type: cell-based, Homo sapiens
# From the text: as §1
# proteins of SKBR3 cells = experiment: Identification of 11-labelled proteins in live cells (TMT quantitative LC-MSMS), all proteins; assay type: cell-based, human; conditions: 0.5 µM, 3 h, three ligand-specific targets and three off-targets
# From the text: The labelled proteins were enriched by immunoprecipitation with an anti-fluorescein antibody and tryptically digested in gel. Digested peptides were modified with Light- (L-), Medium- (M-), or Heavy- (H-) TMT reagent for samples treated with 11, 11 with PU-H71 (as competitive condition), or DMSO (vehicle), respectively, and mixed in a 1:1:1 ratio for LC-MSMS analysis. We performed three experimental replicates, in which proteins detected and quantified at least twice were selected as identified proteins. According to the related approach of Cravatt et al[44], the proteins having L/H (11/DMSO) ratios >5 were defined as 11-labelled proteins. […] On the basis of these criteria, we identified 6 proteins that react with 11, including three ligand-specific targets (Hsp90α (HSP90AA1), Hsp90β (HSP90AB1), and Grp94 (HSP90B1)) and three off-targets (Trifunctional enzyme subunit α (HADHA), Tubulin-α (TUBA1B), and ADP/ATP translocase 3 (SLC25A6)) (Fig. 5d, e and Supplementary Data 1). […] Grp94, a HSP90 isomer, was previously reported to be a PU-H71 specific target. TRAP-1, another Hsp90 isomer that can bind PU-H71, on the other hand, was not identified as 11-target by our criteria.
# SKBR3 human breast cancer cells (2.0 × 10^6 cells) were seeded on a 10 cm dish and cultured for 3 days in McCoy’s 5A in a 5% CO2 humidified chamber at 37 °C. […]
structure (smiles),measurement,setting,value
CC(=O)Oc1ccc2c(c1)Oc1cc(OC(C)=O)ccc1C21OC(=O)c2cc(C(=O)NCCOCCOCCNC(=O)CCCC(=O)N(CC#N)S(=O)(=O)c3ccc(C(=O)NCCCn4c(Sc5cc6c(cc5I)OCO6)nc5c(N)ncnc54)cc3)ccc21 [compound 11],Abundance Ratio: (11) / (11 with PU-H71),[1]; Exp3,0.921
same,Abundance Ratio: (11) / (DMSO),[1]; Exp3,12.228
same,Abundances (Grouped): 11,[1]; Exp3,353.4
same,Abundances (Grouped): 11 with PU-H71,"[1]; Exp3, with PU-H71",383.7
same,Abundance Ratio: (11) / (11 with PU-H71),protein MAL2 (MAL2); Exp3,0.751
same,Abundance Ratio: (11) / (DMSO),protein MAL2 (MAL2); Exp3,5.099
same,Abundances (Grouped): 11,protein MAL2 (MAL2); Exp3,71.9
same,Abundances (Grouped): 11 with PU-H71,"protein MAL2 (MAL2); Exp3, with PU-H71",95.8
same,Abundance Ratio: (11) / (11 with PU-H71),[2]; Exp3,0.849
same,Abundance Ratio: (11) / (DMSO),[2]; Exp3,2.221
same,Abundances (Grouped): 11,[2]; Exp3,38.2
same,Abundances (Grouped): 11 with PU-H71,"[2]; Exp3, with PU-H71",45
same,Abundance Ratio: (11) / (11 with PU-H71),[3]; Exp3,0.809
same,Abundance Ratio: (11) / (DMSO),[3]; Exp3,0.806
same,Abundances (Grouped): 11,[3]; Exp3,6402
same,Abundances (Grouped): 11 with PU-H71,"[3]; Exp3, with PU-H71",7910.4
same,number of proteins that react with 11 (L/H ratios >5),proteins of SKBR3 cells,6
